Data taken from US20260325561A1, “4'-SUBSTITUTED NUCLEOSIDES AND NUCLEOTIDES AS ANTIVIRAL AGENTS” (THE SCRIPPS RESEARCH INSTITUTE, priority 2023, published 2026).

Assays:
SARS-CoV-2 = test: microbe, parasite or virus in culture; format: cell-based, SARS-CoV-2 strain USA-WA1/2020; conditions: Severe acute respiratory syndrome coronavirus 2, HeLa-ACE2, 24 h, read-out: SARS-CoV-2 / HeLa-ACE2 EC50
HCMV = test: HCMV/HFF antiviral assay; format: cell-based; conditions: Human betaherpesvirus 5, HFF
in vitro [1] = conditions: human, hct-8 cells
ZIKV = test: microbe, parasite or virus in culture; format: cell-based, ZIKV MR766; conditions: Zika virus, HepG2, 24 h, read-out: ZIKV / HepG2 EC50
in vitro [2] = conditions: human, hep2 cells
DENV-2 = test: microbe, parasite or virus in culture; format: cell-based, DENV-2 16681; conditions: Dengue virus, DENV2, HepG2, 24 h, read-out: DENV-2 / HepG2 EC50
in vitro [3] = conditions: human, hela-ace2 cells
HRV 16 = test: microbe, parasite or virus in culture; format: cell-based, Human Rhinovirus 16 strain 11757; conditions: Rhinovirus A, H1-HeLa, 48 h, read-out: HRV / H1 HeLa A16 EC50
in vitro [4] = conditions: human, mrc5 cells
in vitro [5] = conditions: human, h1 hela cells
HCoV-OC43 = test: microbe, parasite or virus in culture; format: cell-based, Human Coronavirus; conditions: Betacoronavirus 1, OC43, HCT-8, 48 h, read-out: HCoV-OC43/HCT-8 EC50
Cytotoxicity, HFF = format: cell-based; conditions: human, hff cells; read-out: HCMV/HFF CC50
HRV 14 = test: microbe, parasite or virus in culture; format: cell-based, Human Rhinovirus 14 strain 1059; conditions: Rhinovirus B, H1-HeLa, 48 h, read-out: HRV / H1 HeLa B 14 EC50
in vitro [6] = conditions: human, hepg2 cells
YFV = test: microbe, parasite or virus in culture; format: cell-based, YFV strain 17D; conditions: Yellow fever virus, HepG2, 24 h, read-out: YFV / HepG2 EC50
CHIKV = test: microbe, parasite or virus in culture; format: cell-based, CHIKV strain 181/25; conditions: Chikungunya virus, HepG2, 24 h, read-out: CHIKV / HepG2 EC50
HCoV-229E = test: microbe, parasite or virus in culture; format: cell-based; conditions: Human coronavirus 229E, MRC5, 120 h, read-out: HCoV-229E/MRC5 EC50
RSV A2 = test: microbe, parasite or virus in culture; format: cell-based; conditions: human respiratory syncytial virus, HEp-2, 72 h, read-out: RSV A2 / Hep2 EC50
[7] = system: dengue 2′-0-methyltransferase NS5 domain; conditions: role: inhibitor; cited from earlier work
dengue [8] = conditions: cited from earlier work
dengue [9] = conditions: cited from earlier work; remark: listed apart in the source
dengue [10] = conditions: cited from earlier work; remark: listed apart in the source
RNA virus infections = conditions: cited from earlier work
[11] = mouse or rhesus monkey model; cited from earlier work

## OC[C@@]1(F)O[C@@H](n2ccc3c(Cl)ncnc32)[C@H](O)[C@@H]1O [Example 4, (2S,3S,4R,5R)-5-(4-chloro-7H-pyrrolo[2,3-d]pyrimidin-7-yl)-2-fluoro-2-(hydroxymethyl)tetrahydrofuran-3,4-diol]
SARS-CoV-2
  EC50: 1 to 10 µM
HCMV
  EC50: > 10 µM
In vitro [1]
  CC50: 10 to 99 µM
ZIKV
  EC50: 0.1 to 1 µM
In vitro [2]
  CC50: 10 to 99 µM
DENV-2
  EC50: < 0.1 µM
In vitro [3]
  CC50 at 24 h: 10 to 99 µM
HRV 16
  EC50: 0.1 to 1 µM
In vitro [4]
  CC50: > 99 µM
In vitro [5]
  CC50: 10 to 99 µM
HCoV-OC43
  EC50: 0.1 to 1 µM
Cytotoxicity, HFF
  CC50: 10 to 99 µM
HRV 14
  EC50: 0.1 to 1 µM
In vitro [6]
  CC50 at 72 h: 10 to 99 µM
YFV
  EC50: < 0.1 µM
CHIKV
  EC50: 0.1 to 1 µM
HCoV-229E
  EC50: > 10 µM
RSV A2
  EC50: 0.1 to 1 µM

## OC[C@@]1(F)O[C@@H](n2ccc3c(F)ncnc32)[C@H](O)[C@@H]1O [Example 13, (2S,3S,4R,5R)-2-fluoro-5-(4-fluoro-7H-pyrrolo[2,3-d]pyrimidin-7-yl)-2-(hydroxymethyl)tetrahydrofuran-3,4-diol]
SARS-CoV-2
  EC50: 0.1 to 1 µM
HCMV
  EC50: > 10 µM
In vitro [1]
  CC50: 10 to 99 µM
In vitro [2]
  CC50: 10 to 99 µM
DENV-2
  EC50: < 0.1 µM
In vitro [3]
  CC50 at 24 h: 10 to 99 µM
HRV 16
  EC50: 0.1 to 1 µM
In vitro [4]
  CC50: > 99 µM
In vitro [5]
  CC50: 10 to 99 µM
HCoV-OC43
  EC50: 1 to 10 µM
Cytotoxicity, HFF
  CC50: 10 to 99 µM
HRV 14
  EC50: 1 to 10 µM
In vitro [6]
  CC50 at 72 h: 1 to 10 µM
CHIKV
  EC50: 0.1 to 1 µM
HCoV-229E
  EC50: > 10 µM
RSV A2
  EC50: 0.1 to 1 µM

## O=c1[nH]cnc2c1c(F)cn2[C@@H]1O[C@](F)(CO)[C@@H](O)[C@H]1O [Example 21, 5-fluoro-7-((2R,3R,4S,5S)-5-fluoro-3,4-dihydroxy-5-(hydroxymethyl)tetrahydrofuran-2-yl)-3,7-dihydro-4H-pyrrolo[2,3-d]pyrimidin-4-one]
SARS-CoV-2
  EC50: > 10 µM
In vitro [1]
  CC50: > 99 µM
ZIKV
  EC50: > 10 µM
In vitro [2]
  CC50: > 99 µM
DENV-2
  EC50: > 10 µM
In vitro [3]
  CC50 at 24 h: > 99 µM
HRV 16
  EC50: > 10 µM
In vitro [4]
  CC50: > 99 µM
In vitro [5]
  CC50: > 99 µM
HCoV-OC43
  EC50: > 10 µM
HRV 14
  EC50: > 10 µM
In vitro [6]
  CC50 at 72 h: > 99 µM
YFV
  EC50: > 10 µM
HCoV-229E
  EC50: > 10 µM
RSV A2
  EC50: > 10 µM

## NC(=O)c1cn([C@@H]2O[C@](F)(CO)[C@@H](O)[C@H]2O)c2ncncc12 [Example 24, 7-((2R,3R,4S,5S)-5-fluoro-3,4-dihydroxy-5-(hydroxymethyl)tetrahydrofuran-2-yl)-7H-pyrrolo[2,3-d]pyrimidine-5-carboxamide]
SARS-CoV-2
  EC50: 0.1 to 1 µM
HCMV
  EC50: > 10 µM
In vitro [1]
  CC50: 10 to 99 µM
ZIKV
  EC50: 0.1 to 1 µM
In vitro [2]
  CC50: 10 to 99 µM
DENV-2
  EC50: < 0.1 µM
In vitro [3]
  CC50 at 24 h: 1 to 10 µM
HRV 16
  EC50: > 10 µM
In vitro [4]
  CC50: > 99 µM
In vitro [5]
  CC50: 10 to 99 µM
HCoV-OC43
  EC50: 0.1 to 1 µM
Cytotoxicity, HFF
  CC50: 10 to 99 µM
HRV 14
  EC50: 1 to 10 µM
In vitro [6]
  CC50 at 72 h: 1 to 10 µM
YFV
  EC50: 0.1 to 1 µM
HCoV-229E
  EC50: > 10 µM
RSV A2
  EC50: 0.1 to 1 µM

## OC[C@@]1(F)O[C@@H](n2cc(Br)c3cncnc32)[C@H](O)[C@@H]1O [Example 25, (2S,3S,4R,5R)-5-(5-bromo-7H-pyrrolo[2,3-d]pyrimidin-7-yl)-2-fluoro-2-(hydroxymethyl)tetrahydrofuran-3,4-diol]
SARS-CoV-2
  EC50: 0.1 to 1 µM
HCMV
  EC50: 1 to 10 µM
In vitro [1]
  CC50: < 1 µM
ZIKV
  EC50: < 0.1 µM
In vitro [2]
  CC50: 10 to 99 µM
DENV-2
  EC50: < 0.1 µM
In vitro [3]
  CC50 at 24 h: < 1 µM
HRV 16
  EC50: > 10 µM
In vitro [4]
  CC50: > 99 µM
In vitro [5]
  CC50: 1 to 10 µM
HCoV-OC43
  EC50: 0.1 to 1 µM
Cytotoxicity, HFF
  CC50: > 99 µM
HRV 14
  EC50: > 10 µM
In vitro [6]
  CC50 at 72 h: < 1 µM
YFV
  EC50: < 0.1 µM
HCoV-229E
  EC50: > 10 µM
RSV A2
  EC50: 0.1 to 1 µM

## NC(=O)c1ncn([C@@H]2O[C@H](CO)[C@@H](O)[C@H]2O)n1 [Ribavirin]
[7]
  inhibition of dengue 2′-0-methyltransferase NS5 domain: inhibiting
Dengue [8]
  protection against dengue, rhesus monkey model: did not show protection
Dengue [9]
  activity against dengue in tissue culture: works against dengue in tissue culture
Dengue [10]
  protection against dengue, mouse model: did not show protection
RNA virus infections
  effect against a range of RNA virus infections: effective
[11]
  adverse effects induced: induced anemia and thrombocytosis
